Experimental data taken from PMC5605198, “MELK is not necessary for the proliferation of basal-like breast cancer cells” (eLife, 2017).
Read-outs that look alike come from different tables or passages of the source.

How the values were obtained:
[1] = target: ERK1 (Homo sapiens, UniProt P27361); assay: ICKP radiometric kinase assay; format: biochemical; details: read-out: % AR (% kinase activity remaining)
[2] = target: ERK2 (Homo sapiens, UniProt P28482); assay: ICKP radiometric kinase assay; format: biochemical; details: read-out: % AR (% kinase activity remaining)
[3] = target: JNK2 (Homo sapiens, UniProt P45984); assay: ICKP radiometric kinase assay; format: biochemical; details: read-out: % AR (% kinase activity remaining)
[4] = target: p38 alpha (Homo sapiens, UniProt Q16539); assay: ICKP radiometric kinase assay; format: biochemical; details: read-out: % AR (% kinase activity remaining)
[5] = target: p38 delta (Homo sapiens, UniProt O15264); assay: ICKP radiometric kinase assay; format: biochemical; details: read-out: % AR (% kinase activity remaining)
[6] = target: RSK2 (Homo sapiens, UniProt P51812); assay: ICKP radiometric kinase assay; format: biochemical; details: read-out: % AR (% kinase activity remaining)
[7] = target: PKB alpha (Homo sapiens, UniProt P31749); assay: ICKP radiometric kinase assay; format: biochemical; details: read-out: % AR (% kinase activity remaining)
[8] = target: PKB beta (Homo sapiens, UniProt P31751); assay: ICKP radiometric kinase assay; format: biochemical; details: read-out: % AR (% kinase activity remaining)
[9] = target: SGK1 (Homo sapiens, UniProt O00141); assay: ICKP radiometric kinase assay; format: biochemical; details: read-out: % AR (% kinase activity remaining)
[10] = target: ROCK 2 (Homo sapiens, UniProt O75116); assay: ICKP radiometric kinase assay; format: biochemical; details: read-out: % AR (% kinase activity remaining)
[11] = target: PKD1 (Homo sapiens, UniProt Q15139); assay: ICKP radiometric kinase assay; format: biochemical; details: read-out: % AR (% kinase activity remaining)
[12] = target: STK33 (Homo sapiens, UniProt Q9BYT3); assay: ICKP radiometric kinase assay; format: biochemical; details: read-out: % AR (% kinase activity remaining)
[13] = target: MNK2 (Homo sapiens, UniProt Q9HBH9); assay: ICKP radiometric kinase assay; format: biochemical; details: read-out: % AR (% kinase activity remaining)
[14] = target: DAPK1 (Homo sapiens, UniProt P53355); assay: ICKP radiometric kinase assay; format: biochemical; details: read-out: % AR (% kinase activity remaining)
[15] = target: CHK1 (Homo sapiens, UniProt O14757); assay: ICKP radiometric kinase assay; format: biochemical; details: read-out: % AR (% kinase activity remaining)
[16] = target: CDK9-Cyclin T1 (Homo sapiens, UniProt P50750); assay: ICKP radiometric kinase assay; format: biochemical; details: read-out: % AR (% kinase activity remaining)
[17] = target: PLK1 (Homo sapiens, UniProt P53350); assay: ICKP radiometric kinase assay; format: biochemical; details: read-out: % AR (% kinase activity remaining)
[18] = tested on: AMPK (hum); assay: ICKP radiometric kinase assay; format: biochemical, human; details: 1 μM
[19] = target: MELK (Homo sapiens, UniProt Q14680); assay: ICKP radiometric kinase assay; format: biochemical; details: for remaining activity at 1 µM: read-out: % AR (% kinase activity remaining)
[20] = target: SIK2 (Homo sapiens, UniProt Q9H0K1); assay: ICKP radiometric kinase assay; format: biochemical; details: read-out: % AR (% kinase activity remaining)
[21] = target: SIK3 (Homo sapiens, UniProt Q9Y2K2); assay: ICKP radiometric kinase assay; format: biochemical; details: read-out: % AR (% kinase activity remaining)
[22] = target: CK2 (Homo sapiens, UniProt P68400); assay: ICKP radiometric kinase assay; format: biochemical; details: read-out: % AR (% kinase activity remaining)
[23] = target: TTBK2 (Homo sapiens, UniProt Q6IQ55); assay: ICKP radiometric kinase assay; format: biochemical; details: read-out: % AR (% kinase activity remaining)
[24] = target: DYRK1A (Homo sapiens, UniProt Q13627); assay: ICKP radiometric kinase assay; format: biochemical; details: read-out: % AR (% kinase activity remaining)
[25] = target: NEK2a (Homo sapiens, UniProt P51955); assay: ICKP radiometric kinase assay; format: biochemical; details: read-out: % AR (% kinase activity remaining)
[26] = target: IKK beta (Homo sapiens, UniProt O14920); assay: ICKP radiometric kinase assay; format: biochemical; details: read-out: % AR (% kinase activity remaining)
[27] = target: TBK1 (Homo sapiens, UniProt Q9UHD2); assay: ICKP radiometric kinase assay; format: biochemical; details: read-out: % AR (% kinase activity remaining)
[28] = target: HIPK1 (Homo sapiens, UniProt Q86Z02); assay: ICKP radiometric kinase assay; format: biochemical; details: read-out: % AR (% kinase activity remaining)
[29] = target: HIPK2 (Homo sapiens, UniProt Q9H2X6); assay: ICKP radiometric kinase assay; format: biochemical; details: read-out: % AR (% kinase activity remaining)
[30] = target: PAK2 (Homo sapiens, UniProt Q13177); assay: ICKP radiometric kinase assay; format: biochemical; details: read-out: % AR (% kinase activity remaining)
[31] = target: GCK (Homo sapiens, UniProt Q12851); assay: ICKP radiometric kinase assay; format: biochemical; details: read-out: % AR (% kinase activity remaining)
[32] = target: MAP4K3 (Homo sapiens, UniProt Q8IVH8); assay: ICKP radiometric kinase assay; format: biochemical; details: read-out: % AR (% kinase activity remaining)
[33] = target: MINK1 (Homo sapiens, UniProt Q8N4C8); assay: ICKP radiometric kinase assay; format: biochemical; details: read-out: % AR (% kinase activity remaining)
[34] = target: TAK1 (Homo sapiens, UniProt O43318); assay: ICKP radiometric kinase assay; format: biochemical; details: read-out: % AR (% kinase activity remaining)
[35] = target: RIPK2 (Homo sapiens, UniProt O43353); assay: ICKP radiometric kinase assay; format: biochemical; details: for remaining activity at 1 µM: read-out: % AR (% kinase activity remaining)
[36] = target: MPSK1 (Homo sapiens, UniProt O75716); assay: ICKP radiometric kinase assay; format: biochemical; details: read-out: % AR (% kinase activity remaining)
[37] = target: TGFBR1 (Homo sapiens, UniProt P36897); assay: ICKP radiometric kinase assay; format: biochemical; details: read-out: % AR (% kinase activity remaining)
[38] = target: EPH-B2 (Homo sapiens, UniProt P29323); assay: ICKP radiometric kinase assay; format: biochemical; details: read-out: % AR (% kinase activity remaining)
[39] = target: DDR2 (Homo sapiens, UniProt Q16832); assay: ICKP radiometric kinase assay; format: biochemical; details: read-out: % AR (% kinase activity remaining)
[40] = tested on: BT-549; assay: Cell proliferation assay (CellTiter-Glo); details: Homo sapiens
[41] = tested on: T-47D; assay: Cell proliferation assay (CellTiter-Glo); details: Homo sapiens, T47D
[42] = tested on: MDA-MB-468 (second source); assay: Cell proliferation assay (CellTiter-Glo); details: Homo sapiens, MDA-MB-468, 168 h, read-out: 7-day antiproliferative IC50
[43] = BT-549, 72 h, read-out: 3-day antiproliferative IC50
[44] = BT-549, 168 h, read-out: 7-day antiproliferative IC50
[45] = 72 h, read-out: 3-day antiproliferative IC50
[46] = 168 h, read-out: 7-day antiproliferative IC50

Chain of RIPK2 (O43353 whole entry, species assumed): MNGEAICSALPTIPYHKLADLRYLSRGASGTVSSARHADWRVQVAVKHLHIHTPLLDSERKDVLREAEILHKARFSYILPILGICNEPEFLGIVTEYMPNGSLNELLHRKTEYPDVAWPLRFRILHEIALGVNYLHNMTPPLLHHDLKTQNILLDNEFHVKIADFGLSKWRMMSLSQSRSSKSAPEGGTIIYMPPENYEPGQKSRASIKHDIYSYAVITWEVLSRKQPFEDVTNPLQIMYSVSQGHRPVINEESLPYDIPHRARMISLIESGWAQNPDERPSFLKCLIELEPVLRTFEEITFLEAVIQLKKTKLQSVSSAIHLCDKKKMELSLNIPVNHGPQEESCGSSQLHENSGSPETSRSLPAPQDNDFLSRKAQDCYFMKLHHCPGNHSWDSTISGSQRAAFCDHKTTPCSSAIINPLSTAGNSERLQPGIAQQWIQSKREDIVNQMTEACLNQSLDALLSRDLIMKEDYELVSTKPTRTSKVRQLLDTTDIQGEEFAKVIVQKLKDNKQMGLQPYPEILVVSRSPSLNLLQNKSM
Chain of MELK (Q14680 whole entry): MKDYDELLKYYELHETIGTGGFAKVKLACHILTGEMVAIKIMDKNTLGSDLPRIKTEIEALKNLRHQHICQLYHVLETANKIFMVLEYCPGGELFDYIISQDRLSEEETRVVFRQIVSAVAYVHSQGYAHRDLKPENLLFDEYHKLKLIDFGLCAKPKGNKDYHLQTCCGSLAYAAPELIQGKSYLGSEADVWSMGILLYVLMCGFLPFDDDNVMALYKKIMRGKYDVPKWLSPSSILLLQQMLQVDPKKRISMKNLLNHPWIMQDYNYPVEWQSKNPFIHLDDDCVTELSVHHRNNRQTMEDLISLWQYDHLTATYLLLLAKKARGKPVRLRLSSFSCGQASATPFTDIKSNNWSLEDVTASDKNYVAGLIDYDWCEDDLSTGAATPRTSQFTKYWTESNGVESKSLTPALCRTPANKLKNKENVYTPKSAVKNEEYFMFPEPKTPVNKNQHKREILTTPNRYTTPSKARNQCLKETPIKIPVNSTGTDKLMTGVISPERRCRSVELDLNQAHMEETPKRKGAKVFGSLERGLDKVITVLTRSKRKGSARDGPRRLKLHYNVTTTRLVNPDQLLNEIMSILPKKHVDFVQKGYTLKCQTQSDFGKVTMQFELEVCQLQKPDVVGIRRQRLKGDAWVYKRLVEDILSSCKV
Chain of PLK1 (P53350 whole entry): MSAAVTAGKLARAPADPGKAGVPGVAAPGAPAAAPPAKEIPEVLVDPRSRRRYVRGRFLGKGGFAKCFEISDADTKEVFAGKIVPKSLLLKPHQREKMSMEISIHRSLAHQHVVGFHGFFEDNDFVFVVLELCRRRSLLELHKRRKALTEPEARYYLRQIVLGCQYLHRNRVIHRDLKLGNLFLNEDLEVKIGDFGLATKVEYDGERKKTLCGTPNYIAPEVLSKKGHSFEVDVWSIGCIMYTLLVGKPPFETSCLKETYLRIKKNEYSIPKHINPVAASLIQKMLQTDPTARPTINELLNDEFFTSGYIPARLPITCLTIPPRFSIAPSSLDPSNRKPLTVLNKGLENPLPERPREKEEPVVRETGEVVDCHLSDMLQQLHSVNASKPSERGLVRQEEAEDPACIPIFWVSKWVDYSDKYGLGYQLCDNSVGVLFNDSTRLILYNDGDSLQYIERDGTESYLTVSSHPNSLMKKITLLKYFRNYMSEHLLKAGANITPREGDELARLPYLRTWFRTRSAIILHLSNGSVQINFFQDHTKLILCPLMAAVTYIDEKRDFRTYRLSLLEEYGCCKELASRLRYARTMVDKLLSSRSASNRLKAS
Chain of CK2 (P68400 whole entry): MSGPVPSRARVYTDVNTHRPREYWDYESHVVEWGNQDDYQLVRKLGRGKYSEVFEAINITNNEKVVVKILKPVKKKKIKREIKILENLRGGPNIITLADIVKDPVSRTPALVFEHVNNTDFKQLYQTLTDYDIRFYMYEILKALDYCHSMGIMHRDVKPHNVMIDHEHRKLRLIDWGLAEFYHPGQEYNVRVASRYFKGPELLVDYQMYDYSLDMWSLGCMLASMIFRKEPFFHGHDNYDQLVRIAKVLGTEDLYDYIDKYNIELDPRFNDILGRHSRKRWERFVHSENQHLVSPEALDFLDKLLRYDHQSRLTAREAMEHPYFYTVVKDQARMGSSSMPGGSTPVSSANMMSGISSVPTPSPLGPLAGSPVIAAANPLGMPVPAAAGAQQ
Chain of CHK1 (O14757 whole entry): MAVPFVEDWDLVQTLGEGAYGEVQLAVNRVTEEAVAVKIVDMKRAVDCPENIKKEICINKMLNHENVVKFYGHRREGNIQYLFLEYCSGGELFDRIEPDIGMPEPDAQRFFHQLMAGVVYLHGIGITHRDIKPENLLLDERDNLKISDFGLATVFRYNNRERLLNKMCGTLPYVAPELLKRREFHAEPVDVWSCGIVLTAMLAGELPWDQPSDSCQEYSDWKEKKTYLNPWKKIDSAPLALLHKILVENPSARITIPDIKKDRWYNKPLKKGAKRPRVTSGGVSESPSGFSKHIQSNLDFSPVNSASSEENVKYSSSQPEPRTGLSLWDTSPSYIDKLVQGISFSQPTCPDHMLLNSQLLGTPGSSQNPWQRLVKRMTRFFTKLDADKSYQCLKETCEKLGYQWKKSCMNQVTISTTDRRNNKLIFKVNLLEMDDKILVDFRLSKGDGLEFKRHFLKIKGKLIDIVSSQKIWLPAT
Chain of TGFBR1 (P36897 34-503): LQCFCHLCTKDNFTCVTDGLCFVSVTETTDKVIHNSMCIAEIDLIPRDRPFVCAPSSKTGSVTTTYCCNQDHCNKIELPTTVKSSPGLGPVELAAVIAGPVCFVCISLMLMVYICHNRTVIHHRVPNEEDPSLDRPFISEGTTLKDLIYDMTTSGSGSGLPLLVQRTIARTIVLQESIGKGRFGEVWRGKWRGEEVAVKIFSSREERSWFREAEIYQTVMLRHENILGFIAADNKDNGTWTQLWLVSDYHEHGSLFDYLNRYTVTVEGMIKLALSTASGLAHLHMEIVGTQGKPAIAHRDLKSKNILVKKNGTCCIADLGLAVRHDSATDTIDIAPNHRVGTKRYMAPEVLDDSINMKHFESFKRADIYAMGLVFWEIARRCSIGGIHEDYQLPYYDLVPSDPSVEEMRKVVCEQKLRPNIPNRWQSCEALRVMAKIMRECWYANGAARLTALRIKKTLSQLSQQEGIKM
Chain of MPSK1 (O75716 whole entry): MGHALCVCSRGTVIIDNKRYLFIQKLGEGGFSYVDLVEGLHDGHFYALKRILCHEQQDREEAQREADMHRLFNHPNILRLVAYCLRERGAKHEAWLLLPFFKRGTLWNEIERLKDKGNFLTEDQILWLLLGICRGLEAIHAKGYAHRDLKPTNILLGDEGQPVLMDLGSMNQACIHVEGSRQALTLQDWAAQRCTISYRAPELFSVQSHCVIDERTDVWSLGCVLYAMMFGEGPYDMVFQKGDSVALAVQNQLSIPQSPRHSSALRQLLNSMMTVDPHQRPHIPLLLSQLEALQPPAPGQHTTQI
Chain of HIPK1 (Q86Z02 whole entry): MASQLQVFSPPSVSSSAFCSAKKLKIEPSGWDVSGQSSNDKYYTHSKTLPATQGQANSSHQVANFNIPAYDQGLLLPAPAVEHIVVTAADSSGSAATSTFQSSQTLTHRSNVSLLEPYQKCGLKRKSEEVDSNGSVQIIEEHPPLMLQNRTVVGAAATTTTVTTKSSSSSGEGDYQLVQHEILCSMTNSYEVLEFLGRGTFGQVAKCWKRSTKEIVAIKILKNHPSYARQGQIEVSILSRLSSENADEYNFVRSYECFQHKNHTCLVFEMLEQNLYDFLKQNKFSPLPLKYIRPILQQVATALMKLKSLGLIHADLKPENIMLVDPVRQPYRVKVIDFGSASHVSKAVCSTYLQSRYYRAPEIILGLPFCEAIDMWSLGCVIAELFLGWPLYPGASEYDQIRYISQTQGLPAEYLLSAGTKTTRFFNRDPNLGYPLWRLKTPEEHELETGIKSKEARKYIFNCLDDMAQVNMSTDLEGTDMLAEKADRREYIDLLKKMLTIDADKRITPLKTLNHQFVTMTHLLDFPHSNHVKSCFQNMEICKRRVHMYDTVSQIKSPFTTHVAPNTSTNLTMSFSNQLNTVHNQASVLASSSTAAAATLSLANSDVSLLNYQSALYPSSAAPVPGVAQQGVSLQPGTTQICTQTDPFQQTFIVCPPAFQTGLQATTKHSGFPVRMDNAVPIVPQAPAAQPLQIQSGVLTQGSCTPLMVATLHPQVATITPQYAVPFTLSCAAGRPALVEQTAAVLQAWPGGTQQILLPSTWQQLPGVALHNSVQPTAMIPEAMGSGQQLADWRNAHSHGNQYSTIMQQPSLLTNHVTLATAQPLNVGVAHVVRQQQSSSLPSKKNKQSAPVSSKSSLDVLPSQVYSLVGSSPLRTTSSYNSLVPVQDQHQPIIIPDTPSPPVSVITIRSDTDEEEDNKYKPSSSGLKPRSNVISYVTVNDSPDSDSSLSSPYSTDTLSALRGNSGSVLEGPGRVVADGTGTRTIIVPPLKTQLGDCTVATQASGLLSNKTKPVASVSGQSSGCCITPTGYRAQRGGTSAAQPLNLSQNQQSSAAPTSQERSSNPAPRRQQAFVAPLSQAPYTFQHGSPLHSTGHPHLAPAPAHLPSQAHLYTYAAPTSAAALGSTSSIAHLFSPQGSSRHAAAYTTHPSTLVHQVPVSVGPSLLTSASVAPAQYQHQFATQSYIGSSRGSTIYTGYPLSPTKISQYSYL
Chain of p38 alpha (Q16539 whole entry): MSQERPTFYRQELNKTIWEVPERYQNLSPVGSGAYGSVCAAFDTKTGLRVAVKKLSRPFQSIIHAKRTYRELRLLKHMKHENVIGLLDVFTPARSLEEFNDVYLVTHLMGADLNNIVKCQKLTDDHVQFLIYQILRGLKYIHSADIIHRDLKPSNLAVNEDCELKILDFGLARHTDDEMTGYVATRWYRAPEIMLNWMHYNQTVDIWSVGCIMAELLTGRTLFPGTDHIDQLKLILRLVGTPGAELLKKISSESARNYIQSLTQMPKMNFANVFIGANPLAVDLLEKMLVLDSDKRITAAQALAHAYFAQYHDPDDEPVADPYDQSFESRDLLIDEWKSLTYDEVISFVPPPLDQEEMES

CN(C)C[C@H]1CC[C@H](N2C(=O)NCc3cnc4ccc(-c5cc(Cl)c(O)c(Cl)c5)cc4c32)CC1 [HTH-01-091, 9-(3,5-dichloro-4-hydroxyphenyl)-1-(trans-4-((dimethylamino)methyl)cyclohexyl)-3,4-dihydropyrimido[5,4 c]quinolin-2(1H)-one]
remaining activity at 1 µM [1]: 119%
remaining activity at 1 µM [2]: 93%
remaining activity at 1 µM [3]: 100%
remaining activity at 1 µM [4]: 84%
remaining activity at 1 µM [5]: 89%
remaining activity at 1 µM [6]: 62%
remaining activity at 1 µM [7]: 101%
remaining activity at 1 µM [8]: 88%
remaining activity at 1 µM [9]: 72%
remaining activity at 1 µM [10]: 82%
remaining activity at 1 µM [11]: 79%
remaining activity at 1 µM [12]: 26%
remaining activity at 1 µM [13]: 103%
remaining activity at 1 µM [14]: 15%
remaining activity at 1 µM [15]: 86%
remaining activity at 1 µM [16]: 92%
remaining activity at 1 µM [17]: 95%
% AR (% kinase activity remaining) [18]: 34%
remaining activity at 1 µM [19]: 13%
IC50 ([19]; radioactive filter-binding assay provided by the ICKP, read-out: Enzymatic IC50 MELK): 15.3 nM
remaining activity at 1 µM [20]: 79%
remaining activity at 1 µM [21]: 83%
remaining activity at 1 µM [22]: 23%
remaining activity at 1 µM [23]: 86%
remaining activity at 1 µM [24]: 23%
remaining activity at 1 µM [25]: 100%
remaining activity at 1 µM [26]: 104%
remaining activity at 1 µM [27]: 88%
remaining activity at 1 µM [28]: 24%
remaining activity at 1 µM [29]: 13%
remaining activity at 1 µM [30]: 88%
remaining activity at 1 µM [31]: 16%
remaining activity at 1 µM [32]: 55%
remaining activity at 1 µM [33]: 38%
remaining activity at 1 µM [34]: 22%
remaining activity at 1 µM [35]: 3%
IC50 ([35]; radioactive filter-binding assay provided by the ICKP, read-out: Enzymatic IC50 RIPK2): 42.5 nM
remaining activity at 1 µM [36]: 107%
remaining activity at 1 µM [37]: 102%
remaining activity at 1 µM [38]: 70%
remaining activity at 1 µM [39]: 44%
IC50 [40, 43]: 6160 nM
IC50 [40, 44]: 2820 nM
IC50 [41, 45]: 3870 nM
IC50 [41, 46]: 780 nM
IC50 [42]: 10700 nM

CC(=O)c1cnc2ccc(-c3cc(Cl)c(O)c(Cl)c3)nc2c1N[C@H]1CC[C@H](CN(C)C)CC1 [OTSSP167]
remaining activity at 1 µM [1]: 88%
remaining activity at 1 µM [2]: 90%
remaining activity at 1 µM [3]: 16%
remaining activity at 1 µM [4]: 10%
remaining activity at 1 µM [5]: 4%
remaining activity at 1 µM [6]: 1%
remaining activity at 1 µM [7]: 28%
remaining activity at 1 µM [8]: 24%
remaining activity at 1 µM [9]: 12%
remaining activity at 1 µM [10]: 49%
remaining activity at 1 µM [11]: 6%
remaining activity at 1 µM [12]: 10%
remaining activity at 1 µM [13]: 13%
remaining activity at 1 µM [14]: 1%
remaining activity at 1 µM [15]: 11%
remaining activity at 1 µM [16]: 4%
remaining activity at 1 µM [17]: 3%
% AR (% kinase activity remaining) [18]: 1%
remaining activity at 1 µM [19]: 6%
remaining activity at 1 µM [20]: 2%
remaining activity at 1 µM [21]: 4%
remaining activity at 1 µM [22]: 1%
remaining activity at 1 µM [23]: 91%
remaining activity at 1 µM [24]: 1%
remaining activity at 1 µM [25]: 59%
remaining activity at 1 µM [26]: 41%
remaining activity at 1 µM [27]: 6%
remaining activity at 1 µM [28]: 0%
remaining activity at 1 µM [29]: 2%
remaining activity at 1 µM [30]: 74%
remaining activity at 1 µM [31]: 0%
remaining activity at 1 µM [32]: 1%
remaining activity at 1 µM [33]: 2%
remaining activity at 1 µM [34]: 1%
remaining activity at 1 µM [35]: 4%
remaining activity at 1 µM [36]: 5%
remaining activity at 1 µM [37]: 16%
remaining activity at 1 µM [38]: 1%
remaining activity at 1 µM [39]: 0%
IC50 [40, 43]: 21 nM
IC50 [40, 44]: 9 nM
IC50 [41, 45]: 106 nM
IC50 [41, 46]: 9 nM
IC50 [42]: 33 nM
